Our source for the GI50 and TGI values is PubChem BioAssay (NCI).

Values joined by “and” are separate entries in the source; they are usually repeats but may differ in a detail not shown here. Equal values may be shown once.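 The compound was tested at five concentrations on cells cultured in 96-well plates, with a 48-hour exposure period. GI50 is the concentration that inhibits growth by half. TGI marks complete inhibition of growth.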

What all share (test): inhibition of tumour cell growth, NCI panel, 48 h
Test [1] concerns MALME-3M melanoma.
Test [2] concerns HL-60(TB) leukemia.
Test [3] relates to NCI/ADR-RES ovarian.
Test [4] relates to M14 melanoma.
The subject of test [5] is OVCAR-5 ovarian.
The test system of test [6] is HT29 colon.
Test [7] deals with SK-MEL-5 melanoma.
Test [8] relates to SK-MEL-28 melanoma.
Test [9] relates to OVCAR-8 ovarian.
In test [10] the test system is RXF 393 renal.

For the molecule `CN1C(=O)CCC(N2C(=O)c3cccc(NCCOCCOCCNC(=O)c4cc5c(o4)C(=O)c4ccccc4C5=O)c3C2=O)C1=O` (configuration not stated), the GI50 in test [1] was 0.151 µM; in test [2], 2.03 µM; in test [3] it was 6.3 µM; in test [4] it was 1.35 µM; in test [5] it was 1.76 µM; in [6], 2.66 µM. Moreover, the GI50 in test [7] was 0.242 µM; in test [8], 2.04 µM; in test [9], 2.45 µM; in test [10], 1.82 µM. Also, the TGI in test [1] came out at 0.316 µM; in [2] it was 5.88 µM; in test [3], 36.5 µM; in [4] it was 2.74 µM; in test [5] it was 3.17 µM; in [6] it was 6.98 µM. Moreover, the TGI amounted to 0.652 µM in test [7], 4.27 µM in test [8], 14.7 µM in test [9] and 3.79 µM in test [10].

Turning to `O=C1C2CCN(CC2)C1CN1CCOCC1` (configuration not stated), the TGI was 3.28 µM in test [1]; greater than 100 µM in test [2]; 3.41 µM in test [3]; 6.46 µM in [4]; 13.5 µM in [5]; 16.9 µM in test [6]. For the same molecule, the TGI in test [7] turned out to be 31 µM; in test [8], 10.6 µM; in [9], 13.6 µM; in [10], 5.33 µM.

With `NC(=S)N/N=C/c1ccc(OC(=O)COc2cc(Cl)c(Cl)cc2Cl)cn1`, the GI50 in [1] was 4.96 µM; in [2], 3.97 µM; in test [3] it was 3.23 µM; in test [4], 2.38 µM; in test [5] it was 50.7 µM; in test [6], 17.7 µM. The GI50 is 3.42 µM in test [7], 13.1 µM in test [8], 2.26 µM in [9] and 3.16 µM in test [10]. In addition, the TGI in test [1] was greater than 100 µM; in [2] it was 47.9 µM; in test [3], greater than 100 µM; in test [4], 5.75 µM; in test [5], greater than 100 µM; in [6], greater than 100 µM. The TGI in test [7] is 59.6 µM; in test [8], greater than 100 µM; in test [9] it was greater than 100 µM; in test [10], 21.4 µM.

On to `CC(C)(C)OC(=O)C1C(=O)NC(=O)CC1CC(OCc1ccccc1)C(OCc1ccccc1)C(COCc1ccccc1)OCc1ccccc1` (configuration not stated), for which the GI50 in test [1] was 25.4 µM and 11.4 µM; in test [2], 16.6 µM and 2.81 µM; in test [3], 36.8 µM and 12.1 µM; in test [4], 55.1 µM and 27.2 µM; in test [7], 22 µM and 10.6 µM; in [8] it was > 100 µM and 18.7 µM. Further, in test [9], the GI50 is 33.1 µM and 12 µM. The TGI in test [1] was > 100 µM and 45.4 µM; in [2], 46.5 µM and 11.1 µM; in test [3], > 100 µM and 61.7 µM; in test [4] it was greater than 100 µM; in [5] it was greater than 100 µM; in test [6] it was > 100 µM and 23.5 µM. In addition, the TGI in test [7] was > 100 µM and 37.6 µM; in test [8], greater than 100 µM; in test [9] it was greater than 100 µM; in test [10], 99.7 µM and 32.6 µM.

For the molecule `O=S(=O)(N=C1C(Cl)=C(Cl)C(=NS(=O)(=O)c2ccccc2)C(Cl)=C1Cl)c1ccccc1`, the GI50 in test [1] was 18.5 µM; in test [2], 16.4 µM; in test [3], 26.5 µM; in test [4], 16.5 µM; in test [5], 45.2 µM; in [6], 15.4 µM. The GI50 was 13.9 µM in test [7], 20.6 µM in [8], 17.7 µM in [9] and 15.8 µM in [10]. Moreover, the TGI in test [1] was 56.4 µM; in test [2], greater than 100 µM; in [3] it was greater than 100 µM; in test [4], 34.7 µM; in test [5], greater than 100 µM; in test [6] it was 49.2 µM. Moreover, the TGI turned out to be 36.5 µM in test [7], 78.1 µM in test [8], 50.6 µM in test [9] and 30.9 µM in test [10].

`COc1ccc(-c2ncnc3c2ncn3CC#CCCl)cc1`: the GI50 in test [1] was 2.58 µM; in [2], 3.06 µM; in test [3], 2.72 µM; in [4] it was 4.55 µM; in test [5], 3.25 µM; in test [6], 7.12 µM. Moreover, the GI50 in test [7] is 3.16 µM; in test [8], 9.87 µM; in test [9] it was 11.6 µM; in test [10], 2.29 µM. In addition, the TGI in test [1] is 16 µM; in [2] it was 17.6 µM; in test [3], 8.15 µM; in test [4], 17.4 µM; in test [5], 12.1 µM; in test [6] it was 24.6 µM. Further, the TGI in test [7] is 12.4 µM; in [8], 21.8 µM; in [9], greater than 100 µM; in test [10], 5.94 µM.

Take `C[C@@H]1C[C@H](N)C[C@H](c2ccncc2NC(=O)c2ccc(F)c(-c3c(F)cccc3F)n2)C1`: the GI50 in [1] is 10.5 µM and > 10 µM; in test [2], 2.73 µM and 1.48 µM; in [3], 14.5 µM and > 10 µM; in test [4], 12.9 µM and 2.35 µM; in test [5], 12.3 µM and > 10 µM; in [6] it was 4.17 µM and 5.55 µM. Also, the GI50 in [7] was 13 µM and 1.58 µM; in [8], 10.4 µM and > 10 µM; in test [9] it was 17.1 µM and > 10 µM; in test [10] it was 11 µM and 7.73 µM. Also, the TGI in [1] was 24.3 µM and > 10 µM; in test [2], 12.1 µM and > 10 µM; in test [3], 30.6 µM and > 10 µM; in test [4] it was 27.2 µM and > 10 µM; in test [5] it was 25.9 µM and > 10 µM; in test [6] it was 18.7 µM and > 10 µM. The TGI in [7] is 26.2 µM and 5.01 µM; in test [8], 22.6 µM and > 10 µM; in [9], 32.8 µM and > 10 µM; in test [10] it was 26 µM and > 10 µM.

For the molecule `C(=N\Nc1ncc(-c2cc3cc4c(cc3o2)OCO4)s1)/c1ccco1`, the GI50 in test [1] is 1.92 µM; in [2], 2.7 µM; in [3] it was 2.21 µM; in [4] it was 2.9 µM; in [5] it was 2.71 µM; in test [6], 2.99 µM. The GI50 in test [7] is 2.07 µM; in test [8] it was 3.42 µM; in test [9], 2.8 µM; in test [10], 1.8 µM. The TGI in test [1] is 6.18 µM; in test [2], 7.59 µM; in test [3], greater than 100 µM; in test [4], 11.6 µM; in [5], 8.67 µM; in [6] it was 7.62 µM. The TGI in test [7] is 4.6 µM; in [8], 12.3 µM; in test [9] it was greater than 100 µM; in [10], 5.13 µM.
